Assay results as given in ChEMBL document CHEMBL4270599, “Synthesis of a 3'-C-ethynyl-β-d-ribofuranose purine nucleoside library: Discovery of C7-deazapurine analogs as potent antiproliferative nucleosides” (Eur J Med Chem, 2018).

Key:
Assay type in all cases: functional
[1] = test system: RPMI-8226; experiment: Growth inhibition of human RPMI8226 cells assessed as cell growth at 10^-6 M incubated for 48 hrs by sulforhodamine B assay relative to control; conditions: RPMI-8226, 48 h, read-out: Activity
[2] = test system: MDA-MB-435; experiment: Growth inhibition of human MDA-MB-435 cells assessed as cell growth at 10^-6 M incubated for 48 hrs by sulforhodamine B assay relative to control; conditions: MDA-MB-435, 48 h, read-out: Activity
[3] = test system: HCC 2998; experiment: Growth inhibition of human HCC2998 cells assessed as cell growth at 10^-8 M incubated for 48 hrs by sulforhodamine B assay relative to control; conditions: HCC 2998, 48 h, read-out: Activity
[4] = test system: OVCAR-8; experiment: Growth inhibition of human OVCAR8 cells assessed as cell growth at 10^-6 M incubated for 48 hrs by sulforhodamine B assay relative to control; conditions: OVCAR-8, 48 h, read-out: Activity
[5] = test system: SF-539; experiment: Growth inhibition of human SF539 cells assessed as cell growth at 10^-6 M incubated for 48 hrs by sulforhodamine B assay relative to control; conditions: SF-539, 48 h, read-out: Activity
[6] = test system: LOX IMVI; experiment: Growth inhibition of human LOXIMVI cells assessed as cell growth at 10^-8 M incubated for 48 hrs by sulforhodamine B assay relative to control; conditions: read-out: Activity
[7] = test system: IGROV-1; experiment: Growth inhibition of human IGROV1 cells assessed as cell growth at 10^-7 M incubated for 48 hrs by sulforhodamine B assay relative to control; conditions: IGROV-1, 48 h, read-out: Activity
[8] = test system: SNB-75; experiment: Growth inhibition of human SNB75 cells assessed as cell growth at 10^-8 M incubated for 48 hrs by sulforhodamine B assay relative to control; conditions: SNB-75, 48 h, read-out: Activity
[9] = test system: NCI-H522; experiment: Cytotoxicity against human NCI-H522 cells after 48 hrs by SRB assay; conditions: NCI-H522, 48 h
[10] = test system: NCI/ADR-RES; experiment: Growth inhibition of human NCI/ADR-RES cells assessed as cell growth at 10^-4 M incubated for 48 hrs by sulforhodamine B assay relative to control; conditions: read-out: Activity
[11] = test system: HT-29; experiment: Growth inhibition of human HT-29 cells assessed as cell growth at 10^-7 M incubated for 48 hrs by sulforhodamine B assay relative to control; conditions: HT-29, 48 h, read-out: Activity
[12] = test system: OVCAR-5; experiment: Cytotoxicity against human OVCAR5 cells after 48 hrs by SRB assay; conditions: OVCAR-5, 48 h
[13] = test system: COLO 205; experiment: Growth inhibition of human COLO205 cells assessed as cell growth at 10^-5 M incubated for 48 hrs by sulforhodamine B assay relative to control; conditions: COLO 205, 48 h, read-out: Activity
[14] = test system: M14; experiment: Growth inhibition of human M14 cells assessed as cell growth at 10^-6 M incubated for 48 hrs by sulforhodamine B assay relative to control; conditions: M14, 48 h, read-out: Activity
[15] = test system: SK-MEL-2; experiment: Growth inhibition of human SK-MEL-2 cells assessed as cell growth at 10^-7 M incubated for 48 hrs by sulforhodamine B assay relative to control; conditions: SK-MEL-2, 48 h, read-out: Activity
[16] = test system: SF-539; experiment: Growth inhibition of human SF539 cells assessed as cell growth at 10^-8 M incubated for 48 hrs by sulforhodamine B assay relative to control; conditions: SF-539, 48 h, read-out: Activity
[17] = test system: OVCAR-3; experiment: Cytotoxicity against human OVCAR3 cells after 48 hrs by SRB assay; conditions: OVCAR-3, 48 h
[18] = test system: MDA-MB-231; experiment: Growth inhibition of human MDA-MB-231 cells assessed as cell growth at 10^-6 M incubated for 48 hrs by sulforhodamine B assay relative to control; conditions: MDA-MB-231, 48 h, read-out: Activity
[19] = test system: SNB-19; experiment: Growth inhibition of human SNB19 cells assessed as cell growth at 10^-8 M incubated for 48 hrs by sulforhodamine B assay relative to control; conditions: SNB-19, 48 h, read-out: Activity
[20] = test system: A549; experiment: Cytotoxicity against human A549 cells after 48 hrs by SRB assay; conditions: A549, 48 h
[21] = test system: MCF7; experiment: Growth inhibition of human MCF7 cells assessed as cell growth at 10^-4 M incubated for 48 hrs by sulforhodamine B assay relative to control; conditions: MCF7, 48 h, read-out: Activity
[22] = test system: OVCAR-3; experiment: Growth inhibition of human OVCAR3 cells assessed as cell growth at 10^-4 M incubated for 48 hrs by sulforhodamine B assay relative to control; conditions: OVCAR-3, 48 h, read-out: Activity
[23] = test system: SW-620; experiment: Growth inhibition of human SW620 cells assessed as cell growth at 10^-8 M incubated for 48 hrs by sulforhodamine B assay relative to control; conditions: SW-620, 48 h, read-out: Activity
[24] = test system: KM12; experiment: Cytotoxicity against human KM12 cells after 48 hrs by SRB assay; conditions: KM12, 48 h; for GI50: read-out: GI50
[25] = test system: NCI-H322M; experiment: Growth inhibition of human NCI-H322M cells assessed as cell growth at 10^-8 M incubated for 48 hrs by sulforhodamine B assay relative to control; conditions: read-out: Activity
[26] = test system: CCRF-CEM; experiment: Growth inhibition of human CCRF-CEM cells assessed as cell growth at 10^-6 M incubated for 48 hrs by sulforhodamine B assay relative to control; conditions: read-out: Activity
[27] = test system: M14; experiment: Growth inhibition of human M14 cells assessed as cell growth at 10^-7 M incubated for 48 hrs by sulforhodamine B assay relative to control; conditions: M14, 48 h, read-out: Activity
[28] = test system: TK-10; experiment: Growth inhibition of human TK10 cells assessed as cell growth at 10^-6 M incubated for 48 hrs by sulforhodamine B assay relative to control; conditions: TK-10, 48 h, read-out: Activity
[29] = test system: HOP-92; experiment: Growth inhibition of human HOP92 cells assessed as cell growth at 10^-6 M incubated for 48 hrs by sulforhodamine B assay relative to control; conditions: HOP-92, 48 h, read-out: Activity
[30] = test system: HL-60(TB); experiment: Growth inhibition of human HL-60(TB) cells assessed as cell growth at 10^-8 M incubated for 48 hrs by sulforhodamine B assay relative to control; conditions: HL-60, 48 h, read-out: Activity
[31] = test system: UACC-62; experiment: Growth inhibition of human UACC62 cells assessed as cell growth at 10^-5 M incubated for 48 hrs by sulforhodamine B assay relative to control; conditions: UACC-62, 48 h, read-out: Activity
[32] = test system: T47D; experiment: Growth inhibition of human T47D cells assessed as cell growth at 10^-7 M incubated for 48 hrs by sulforhodamine B assay relative to control; conditions: read-out: Activity
[33] = read-out: LC50 (the source's name)
[34] = read-out: pLC50 (the source's name) (converted)

C#C[C@@]1(O)[C@@H](CO)O[C@@H](n2cc(I)c3c(N)ncnc32)[C@@H]1O
growth at 1 µM [1]: 23 to 27%
growth at 1 µM [2]: 34 to 46%
growth at 0.01 µM [3]: 87 to 90%
growth at 1 µM [4]: 3 to 5%
growth at 1 µM [5]: 23 to 35%
growth at 0.01 µM [6]: 85 to 93%
growth at 0.1 µM [7]: 5 to 13%
growth at 0.01 µM [8]: 74 to 83%
GI50 ([9]; read-out: GI50): 64.8 to 152 nM
CC50 [9, 33]: > 100 µM
TGI ([9]; read-out: TGI): 516 to 698 nM
growth at 100 µM [10]: -2%
growth at 0.1 µM [11]: 14 to 34%
GI50 ([12]; read-out: GI50): 515 to 1690 nM
CC50 [12, 33]: > 100 µM
TGI ([12]; read-out: TGI): > 100 µM
TGI ([12]; read-out: pTGI (converted)): > 100 µM
growth at 10 µM [13]: -62%
growth at 1 µM [14]: 38 to 43%
growth at 0.1 µM [15]: 63 to 77%
growth at 0.01 µM [16]: 89 to 102%
GI50 ([17]; read-out: GI50): 321 to 427 nM
CC50 [17, 33]: > 100 µM
growth at 1 µM [18]: 17 to 27%
growth at 0.01 µM [19]: 88 to 92%
GI50 ([20]; read-out: GI50): 297 to 589 nM
CC50 [20, 33]: > 100 µM
TGI ([20]; read-out: TGI): > 100 µM
TGI ([20]; read-out: pTGI (converted)): > 100 µM
growth at 100 µM [21]: 1 to 3%
growth at 100 µM [22]: 1 to 2%
growth at 0.01 µM [23]: 85 to 86%
GI50 [24]: 92.8 to 99.8 nM
CC50 [24, 33]: > 100 µM
TGI ([24]; read-out: TGI): > 100 µM
TGI ([24]; read-out: pTGI (converted)): > 100 µM
growth at 0.01 µM [25]: 75 to 86%
growth at 1 µM [26]: 17 to 23%
growth at 0.1 µM [27]: 67 to 75%
growth at 1 µM [28]: 34 to 39%
growth at 1 µM [29]: 10%
growth at 0.01 µM [30]: 83%

C#C[C@@]1(O)[C@@H](CO)O[C@@H](n2cc(Br)c3c(N)ncnc32)[C@@H]1O
growth at 1 µM [2]: 15 to 28%
growth at 0.01 µM [3]: 86 to 99%
growth at 1 µM [4]: 1 to 4%
growth at 1 µM [5]: 3 to 19%
growth at 0.01 µM [6]: 76 to 94%
growth at 0.1 µM [7]: 11 to 43%
growth at 0.01 µM [8]: 73 to 89%
GI50 ([9]; read-out: GI50): 61.3 to 156 nM
TGI ([9]; read-out: TGI): 332 to 593 nM
CC50 [9, 34]: > 100 µM
growth at 0.1 µM [11]: 10 to 35%
GI50 ([12]; read-out: GI50): 257 to 1370 nM
TGI ([12]; read-out: TGI): 56.7 to 100 µM
CC50 [12, 34]: > 100 µM
growth at 1 µM [14]: 20 to 24%
growth at 0.1 µM [15]: 48 to 75%
growth at 0.01 µM [16]: 91 to 93%
GI50 ([17]; read-out: GI50): 184 to 252 nM
CC50 [17, 33]: > 100 µM
TGI ([17]; read-out: TGI): 3.01 to 4.71 µM
growth at 1 µM [18]: 2 to 8%
growth at 0.01 µM [19]: 64 to 98%
GI50 ([20]; read-out: GI50): 90 to 283 nM
CC50 [20, 34]: > 100 µM
growth at 0.01 µM [23]: 81 to 89%
growth at 10 µM [31]: 4 to 8%
GI50 [24]: 94.6 to 121 nM
TGI ([24]; read-out: TGI): > 100 µM
CC50 [24, 34]: > 100 µM
TGI ([24]; read-out: pTGI (converted)): > 100 µM
growth at 0.01 µM [25]: 91 to 95%
growth at 1 µM [26]: 5 to 11%
growth at 0.1 µM [27]: 56 to 81%
growth at 0.1 µM [32]: 5 to 32%
growth at 1 µM [28]: 17 to 27%
growth at 0.01 µM [30]: 81 to 82%

C#C[C@@]1(O)[C@@H](CO)O[C@@H](n2ccc3c(N)ncnc32)[C@@H]1O
growth at 1 µM [1]: 44%
growth at 1 µM [2]: 73%
growth at 0.01 µM [3]: 99%
growth at 1 µM [4]: 51%
growth at 1 µM [5]: 88%
growth at 0.01 µM [6]: 98%
growth at 0.1 µM [7]: 100%
growth at 0.01 µM [8]: 86%
CC50 [9, 33]: > 100 µM
TGI ([9]; read-out: TGI): 3820 nM
GI50 ([9]; read-out: pGI50 (converted)): 372 nM
TGI ([9]; read-out: pTGI (converted)): 3800 nM
growth at 100 µM [10]: -9%
growth at 0.1 µM [11]: 95%
TGI ([12]; read-out: TGI): 8.54 µM
GI50 ([12]; read-out: pGI50 (converted)): 3090 nM
CC50 [12, 34]: > 100 µM
TGI ([12]; read-out: pTGI (converted)): 8.51 µM
growth at 10 µM [13]: -54%
growth at 1 µM [14]: 73%
growth at 0.1 µM [15]: 90%
growth at 0.01 µM [16]: 92%
TGI ([17]; read-out: TGI): 12 µM
GI50 ([17]; read-out: pGI50 (converted)): 2950 nM
CC50 [17, 34]: > 100 µM
TGI ([17]; read-out: pTGI (converted)): 12 µM
growth at 1 µM [18]: 66%
growth at 0.01 µM [19]: 99%
TGI ([20]; read-out: TGI): > 100 µM
GI50 ([20]; read-out: pGI50 (converted)): 1320 nM
CC50 [20, 34]: > 100 µM
TGI ([20]; read-out: pTGI (converted)): > 100 µM
growth at 100 µM [21]: -53%
growth at 100 µM [22]: -36%
growth at 0.01 µM [23]: 72%
growth at 10 µM [31]: -44%
TGI ([24]; read-out: TGI): 10.9 µM
CC50 [24, 34]: 91.2 µM
TGI ([24]; read-out: pTGI (converted)): 11 µM
growth at 0.01 µM [25]: 99%
growth at 1 µM [26]: 70%
growth at 0.1 µM [27]: 99%
growth at 0.1 µM [32]: 86%
growth at 1 µM [28]: 88%
growth at 1 µM [29]: 86%
growth at 0.01 µM [30]: 97%
